PMC4891657, “Orexin 2 Receptor Antagonism is Sufficient to Promote NREM and REM Sleep from Mouse to Man” (Scientific Reports, 2016)

Tests used:
sleep/wake stages = assay: Polysomnography in telemetered Sprague-Dawley rats; format: in vivo, rat
Experimental: MK-1064 promoted both REM and NREM sleep in telemetered rats in a time-of-day-dependent manner.
Figure 2 MK-1064 dose-dependently promotes both NREM and REM sleep during the active phase in rats. Mean time in active wake, light sleep (LS), SWS, and REM sleep in adult Sprague-Dawley rats monitored for 2 hours post-dose. MK-1064 (5, 10, or 20 mg/kg) or vehicle (20% vitamin E TPGS, orally) was administered in a balanced crossover design such that each animal received drug and vehicle treatments (7 consecutive days). […] Mean within-subject change relative to vehicle ± SEM is shown (*, ***p < 0.05 < 0.001, respectively; one sample t-test for repeated measures compared with vehicle).
The mean time spent in sleep stages was determined in radio-telemetry–implanted mice, rats, and dogs, as described previously. Continuous PSG recordings were performed following oral MK-1064 or vehicle (20% vitamin E d-alpha tocopheryl polyethylene glycol 1000 succinate [TPGS]) administration. In rodents, electrocorticogram (ECoG) and electromyogram (EMG) and locomotor activity measured via radio-telemetry were scored in 10 second epochs to define light sleep (LS; no movement, moderate EMG tone, theta with <50% delta ECoG [0.5–4 Hz]), slow wave sleep (SWS; no gross movement, reduced EMG, >50% delta ECoG) and rapid eye movement sleep (REM; no movement, little to no EMG activity, primarily theta ECoG [4–7 Hz] activity)[42]. Scored data were then grouped and compiled according to condition (vehicle or compound treatment) averaged over the indicated times (30 minutes or 2 hours) and analyzed statistically as previously described[1][14][40][42] (see below). Canine sleep was scored similarly except that electrooculogram (EOG) recordings were used to define and distinguish REM sleep (high frequency EOG, no locomotor, little to no EMG activity, theta ECoG) from non-REM I (NREM I; little to no EOG activity, no movement, moderate EMG tone, <50% delta ECoG) and NREM II sleep (little to no EOG activity, no gross movement, reduced EMG, >50% delta ECoG), and analyzed as described previously.
In adult male Sprague-Dawley rats (600 g, Taconic Farms, Germantown, NY), MK-1064 (5, 10, or 20 mg/kg) or vehicle was administered orally in a balanced crossover design such that each subject received drug and vehicle treatments (7 consecutive days). […] Data were analyzed using within-subject ANOVA to determine main effects and one sample t-test to compare with vehicle.

[1] = parameters: method as in PMID 24376006; details: dogs ref 29; cited from earlier work

SMILES: COc1ccc(CNC(=O)c2cc(-c3cncc(Cl)c3)cnc2-c2ccccn2)nc1OC [MK-1064, 5″-chloro-N-[(5,6-dimethoxypyridin-2-yl)methyl]-2,2′:5′, 3″-terpyridine-3′-carbo xamide]
- sleep stage changes, late active phase administration (sleep/wake stages; ZT 23:00, 1 hour prior to inactive period, 20 mg/kg oral): only SWS reached significance
- active wake during the 2 hours following administration (sleep/wake stages; mid-active phase (ZT 17:00), 5, 10 and 20 mg/kg oral, 20 mg/kg significant p < 0.05): dose dependently attenuated active wake
- SWS during the 2 hours following administration (sleep/wake stages; mid-active phase, 20 mg/kg oral): increases in SWS
- REM sleep during the 2 hours following administration (sleep/wake stages; mid-active phase, 10 and 20 mg/kg oral): increases in REM sleep
- minimum plasma concentration needed for sleep-promoting efficacy [1]: 0.028 µM
